Experimental data reported in paper PMC5740381 (Antimicrobial Agents and Chemotherapy, 2017).
Values joined by “and” are separate entries in the source; they are usually repeats but may differ in a detail not shown here. Equal values may be shown once. Read-outs that look alike come from different tables or passages of the source.

Experiments:
HBV = experiment: Anti-HBV assay, extracellular HBV DNA by quantitative PCR; format: cell-based; conditions: Hepatitis B virus, read-out: Mean EC50 ± SD
MTT cytotoxicity assay = conditions: human
Description: For MT4 cells, 10,000 cells/well were plated immediately before the addition of glecaprevir. The rest of the assay was performed as described previously ([33]).

[1] = tested on: HCV replicons with genotype 1a patient proteases; experiment: Transient replicon assay with proteases from HCV-infected patients; format: cell-based; conditions: Hepatitis C virus
Description: (§1) […]. Each of the NS3 gene sequences from genotypes 1, 2, and 4, with the exception of two genotype 2b sequences, was derived from serum or plasma from an HCV-infected patient by bulk PCR amplification, producing a population of sequences representing the viral quasispecies. Two genotype 2b sequences were synthesized based on the consensus sequences of the respective samples. One genotype 3a sequence was synthesized based on a consensus sequence from the sequences available in the Los Alamos HCV sequence database, and another genotype 3a sequence was a clonal sequence derived from a patient sample. The genotype 5a sequence (strain SA13) was synthesized based on the published sequence of the HCV isolate ([48]).
(§2) Transient replicons containing NS3 from clinical samples from HCV genotype 1a- and 1b-infected patients were described previously ([28]). For the transient replicons containing NS3/4A from samples from genotype 3a-infected patients, the first 251 amino acids of NS3 and the region encoding NS4A amino acids 21 to 32 (numbered relative to the NS4A coding region) from these HCV samples were cloned to replace the corresponding residues from the backbone of a genotype 1b Con1 shuttle vector. A genotype 1b Con1 transient replicon shuttle vector was also used to clone the region encoding the first 251 amino acids of NS3 from samples from genotype 4a- or 4d-infected patients in place of the corresponding region from HCV genotype 1b Con1.
(§3) For the analysis of NS3 sequences from patients, we defined a polymorphism to be an amino acid difference in the sequence of a baseline sample relative to the sequence of the appropriate HCV subtype reference sequence: genotype 1a H77 (GenBank accession number NC_004102), genotype 1b Con1 (GenBank accession number AJ238799), genotype 2a JFH-1 (GenBank accession number AB047639), genotype 2b HC-J8 (GenBank accession number D10988), genotype 3a S52 (GenBank accession number GU814263), genotype 4a ED43 (GenBank accession number GU814265), genotype 4d QC382 (GenBank accession number FJ462437), and genotype 5a SA13 (GenBank accession number AF064490). Polymorphisms were assessed at the following NS3 amino acid positions that are associated with resistance to the HCV PI class: 36, 43, 54, 55, 56, 80, 122, 155, 156, and 168. All DNA sequencing was performed by the Sanger sequencing method.

[2] = tested on: HCV replicons with genotype 1b patient proteases; experiment: as above; format: cell-based; conditions: Hepatitis C virus, subtype 1b, no polymorphism, 9 samples
Description: as §1, §2, §3

[3] = tested on: HCV replicons with genotype 3a patient proteases; experiment: as above; format: cell-based; conditions: Hepatitis C virus, subtype 3a, no polymorphism, 2 samples
Description: as §1, §2, §3

[4] = tested on: HCV replicons with genotype 4d patient proteases; experiment: as above; format: cell-based; conditions: Hepatitis C virus, 96 h, subtype 4d, no polymorphism, 3 samples
Description: as §1, §2, §3

[5] = tested on: HCV replicons with genotype 2a patient proteases; experiment: as above; format: cell-based; conditions: Hepatitis C virus, subtype 2a, no polymorphism, 4 samples
Description: as §1
A genotype 2a JFH-1 replicon shuttle vector was used to generate transient replicons containing NS3 from clinical samples from genotype 2a- and genotype 2b-infected patients. The region encoding the first 227 amino acids of NS3 from samples from genotype 2a- and 2b-infected patients was used to replace the corresponding region in the genotype 2a JFH-1 replicon shuttle vector. The genotype 2a JFH-1 replicon shuttle vector was also used to generate a transient replicon containing a region encoding full-length NS3 through the first 39 amino acids of NS5B from genotype 5a (strain SA13). […]

HCV genotype 1 = conditions: 3-day monotherapy, daily doses of 100 to 700 mg, genotype 1 treatment-naive patients; cited from earlier work
[6] = tested on: HCV genotype 1 to 6 replicons containing NS3 substitutions; experiment: Transient replicon assay with engineered substitutions, summary over genotypes; format: cell-based, Hepatitis C virus
Description: Mutagenesis was performed using a Change-IT multiple-mutation site-directed mutagenesis kit (USB, Cleveland, OH) or by cloning a synthesized DNA fragment encoding the amino acid substitution(s). The genotype 1a and 1b replicon shuttle vectors used for the introduction of the substitutions of interest in the NS3, NS5A, or NS5B gene for transient-transfection assays have been described previously ([28], [33]). The replicon shuttle vectors used for the introduction of substitutions in NS3 genes from other genotypes were similar to the stable replicon cell line constructs described above, except for the absence of the neo gene. After mutagenesis, the plasmids were linearized and RNA was transcribed and then used to transfect Huh-7 cells. Inhibition of HCV replication by the HCV inhibitors was measured by luciferase assay, as described above. Replication efficiency was calculated as a percentage of wild-type replication, as described previously ([28]).

| Structure (SMILES) | EC50 (HBV) [nM] | CC50 (MTT cytotoxicity assay) | EC50 ([1]; all genotype 1a clinical samples, read-out: Median EC50) [nM] | EC50 ([1]; subtype 1a, Q80K, 5 samples, read-out: EC50 Median) [nM] | EC50 ([1]; subtype 1a, Q80K, 5 samples, read-out: EC50 Range) [nM] | EC50 ([1]; subtype 1a, Q80N, 1 sample, read-out: EC50 Median) [nM] | EC50 ([1]; subtype 1a, no NS3 polymorphism, 5 samples, read-out: EC50 Median) [nM] | EC50 ([1]; subtype 1a, no NS3 polymorphism, 5 samples, read-out: EC50 Range) [nM] | EC50 ([2]; read-out: EC50 Median) [nM] | EC50 ([2]; read-out: EC50 Range) [nM] | EC50 ([3]; read-out: EC50 Median) [nM] | EC50 ([3]; read-out: EC50 Range) [nM] | EC50 ([4]; read-out: EC50 Median) [nM] | EC50 ([4]; read-out: EC50 Range) [nM] | EC50 ([5]; read-out: EC50 Median) [nM] | EC50 ([5]; read-out: EC50 Range) [nM] | Mean maximal decrease in HCV plasma viral load from baseline (HCV genotype 1) [log10 IU/ml] | Fold decrease in susceptibility ([6]; R155 substitutions in genotypes 1, 3 and 4) | Fold reduction in antiviral activity, range ([6]; replicons with A156 substitutions in genotypes 1 to 4) |
| --- | --- | --- | --- | --- | --- | --- | --- | --- | --- | --- | --- | --- | --- | --- | --- | --- | --- | --- | --- |
| CC(C)(C)[C@@H]1NC(=O)O[C@@H]2CCC[C@H]2OC/C=C/C(F)(F)c2nc3ccccc3nc2O[C@@H]2C[C@@H](C(=O)N[C@]3(C(=O)NS(=O)(=O)C4(C)CC4)C[C@H]3C(F)F)N(C2)C1=O [Glecaprevir, (3aR,7S,10S,12R,21E,24aR)-7-tert-butyl-N-[(1R,2R)-2-(difluoromethyl)-1-{[(1-methylcyclopropyl)sulfonyl]carbamoyl}cyclopropyl]-20,20-difluoro-5,8-dioxo-2,3,3a,5,6,7,8,11,12,20,23,24a-dodecahydro-1H,10H-9,12-methanocyclopenta[18,19][1,10,17,3,6]trioxadiazacyclononadecino[11,12-b]quinoxaline-10-carboxamide] | > 32000 | 72 µM and 60 µg/mL | 0.08 | 0.09 | 0.07 to 0.1 | 0.09 | 0.06 | 0.05 to 0.12 | 0.29 | 0.2 to 0.68 | 2.3 | 0.71 to 3.8 | 0.17 | 0.13 to 0.25 | 1.6 | 0.66 to 1.9 | 3.8 to 4.3 |  |  |
| Cc1cnc(C(=O)N[C@H]2CCCCC/C=C\[C@@H]3C[C@@]3(C(=O)NS(=O)(=O)C3CC3)NC(=O)[C@@H]3C[C@@H](Oc4nc5ccccc5c5ccccc45)CN3C2=O)cn1 [Paritaprevir] |  |  |  |  |  |  |  |  |  |  |  |  |  |  |  |  |  | 5.2- to 59 fold | 1.7- to 155 fold |
